Entries after “also recorded” stand apart in the source; their conditions may differ.
Legend:
[1] = test system: femoral artery injured by angioplasty overstretch; assay: Histopathology in porcine model of femoral artery injury; assay type: in vivo, Yorkshire pigs
[2] = test system: cell proliferation in the vessel wall and adventitia; assay: Ki-67 staining of cellular proliferation in injured femoral vessels; assay type: in vivo, Yorkshire pigs; conditions: day 3, 7 and 28; 1.5 ml of 238 μg/ml perivascular injection
[3] = Pharmacokinetics: whole blood concentrations after adventitial injection; assay type: in vivo, Yorkshire pigs
Description: Temsirolimus Preparation. The 25 mg/ml of Torisel® (temsirolimus) was diluted to 10 mg/ml with the supplied diluent and further diluted to 476 μg/ml in 0.9% sodium chloride solution. Then, the 476 μg/ml temsirolimus was mixed at 1:1 ratio with a contrast medium, Isovue-370, for a final temsirolimus concentration of 238 μg/ml. This temsirolimus preparation was subsequently administered in temsirolimus-treated group pigs. Similarly, a control solution was prepared by mixing 0.9% sodium chloride solution at 1:1 ratio with a contrast medium, Isovue-370. This control solution was administered in control group pigs.
Temsirolimus-Treated Group.
Pharmacokinetics. Whole blood samples were taken following each injection at 5 minutes, 20 minutes, 1 hour, and then 24 hours and upon sacrifice. Whole blood samples were analyzed for circulating temsirolimus and sirolimus concentrations. FIG. 14A and FIG. 14B show the levels of temsirolimus and sirolimus, respectively, circulating in whole blood at 1 hour, and 3, 7, and 28 days post-procedure. The mean temsirolimus level in whole blood was highest at 1 hour after the first injection (32.1±11.0 ng/mL) and decreased by an order of magnitude within 24 hours (2.4±1.0 ng/mL).

[4] = Pharmacokinetics: concentrations in harvested vessel tissues; assay type: in vivo, Yorkshire pigs; conditions: post-dosing
[5] = clinical observations, clinical pathology, post mortem tissue analysis; adventitial injection with Bullfrog device
[6] = 1.5 ml of 238 μg/ml perivascular injection, injured femoral artery

For CO[C@H]1C[C@@H]2CC[C@@H](C)[C@@](O)(O2)C(=O)C(=O)N2CCCC[C@H]2C(=O)O[C@H]([C@H](C)C[C@@H]2CC[C@@H](OC(=O)C(C)(CO)CO)[C@H](OC)C2)CC(=O)[C@H](C)/C=C(\C)[C@@H](O)[C@@H](OC)C(=O)[C@H](C)C[C@H](C)/C=C/C=C/C=C/1C [temsirolimus], the neointima formation [1, 6] was “no or minimal to mild and non-stenosing neointima formation”, the re-endothelialization [1, 6] was “complete or near complete re-endothelialization” and the “healing of treated vessels (histopathology)” value ([1]; 1.5 ml of 238 μg/ml temsirolimus into adventitia/perivascular tissue of each injured femoral artery) was “fully or nearly fully healed as early as day 7”. For the same compound, the “cell proliferation throughout the vessel wall (Ki-67) compared to controls” value [2] was “moderate to marked decrease; also recorded: reduced cellular proliferation”, the “temsirolimus concentration in whole blood” value (“temsirolimus concentration” for short) ([3]; 7 days post-procedure) was “below the limit of quantitation” and the “temsirolimus concentration” value ([3]; 28 days post-procedure) was “below the limit of quantitation”. The concentration at 1 h ([3]; Yorkshire, pig, whole blood, 357 µg per artery (1.5 ml of 238 µg/ml), 1 hour after the first injection, read-out: mean temsirolimus level in whole blood) was 32.1 ± 11 ng/mL, the concentration at 24 h ([3]; Yorkshire, pig, whole blood, 357 µg per artery (1.5 ml of 238 µg/ml), 24 hours, read-out: mean temsirolimus level in whole blood) was 2.4 ± 1 ng/mL and the “temsirolimus concentration” value ([3]; between 24 hours and 3 days) was “continued to decrease”. The “time temsirolimus was measured in local vascular tissue” value [4] was “up to 28 days” and the “local or systemic toxicity” value [5] was “no evidence of local or systemic toxicity”.
